Consider one molecule from patent US9700044B2, “Symmetrical marinopyrrole derivatives as potential antibiotic agents” (priority 2013, dated 2017).

Molecules are shown by their SMILES. Converted amounts (≈) assume the structure as drawn. Bounds are passed on as bounds.

In test [1] the test system is Highly vancomycin-resistant Enterococci faecalis (VRE). Kind of test: MIC by agar dilution, highly resistant VRE. Format: cell-based. Conditions: Table 1; VRE (highly vancomycin-resistant E. faecalis), 2 isolates. The text has this: (§1) A panel of multiple resistance Gram-positive and Gram-negative pathogens listed in Tables 1 and 2 was used to evaluate the antimicrobial activity of marinopyrrole derivatives (Chart 1) with vancomycin as a positive control. Except for those marked with WHO, all pathogens were isolated between 2008 and 2010 in hospitals located in Beijing; Guangzhou; Sichuan, Shandong and Jiangsu Province. Determination of the minimum inhibitory concentration (MIC) was done by the guidelines of the Clinical and Laboratory Standards Institute (Clinical and Laboratory Standards Institute, Performance standards for antimicrobial susceptibility testing, seventeenth informational supplement. 2007, 27, M100-S17). The susceptibility tests of a bacterial strain to a marinopyrrole derivative were performed by an agar dilution method. Briefly, each sterile petri dish contained a final volume of 15 mL comprising 1 mL of a marinopyrrole derivative and 14 mL of Mueller-Hinton broth. The concentrations of a marinopyrrole derivative are 128, 64, 32, 16, 8, 4, 2, 1, 0.5, 0.25, 0.125, 0.06, 0.03, 0.015 and 0.008 μg/mL. The petri dish containing the broth with different concentration of antibiotics was first inoculated with 10^5 CFU/mL (Denley A400, United Kingdom) and the culture was then incubated with shaking at 35-37° C. for 18-20 h. The potency of the compound was determined and expressed as minimum inhibitory concentration (MIC) in μg/mL. The MIC was determined as the lowest concentration of antibiotic that inhibited visible bacterial growth.

Test [2] has as its system Moderately vancomycin-resistant Enterococci faecium with the VanA gene (WHO-3). The experiment in a line: MIC by agar dilution, VRE (WHO-3). Format: cell-based. Conditions: Table 1; VRE (WHO-3), 1 isolate.
Description: as §1

The test system of test [3] is Methicillin-resistant Staphylococcus aureus (MRSA). Kind of test: MIC by agar dilution, MRSA clinical isolates. It counts as cell-based. Conditions: Table 1; MRSA, 10 isolates.
Description: as §1
On the technique in general: In agar dilution the substance is mixed into plates at graded concentrations.

Test [4] concerns E. coli. Kind of test: MIC by agar dilution, E. coli. It counts as cell-based. Conditions: Table 1; E. coli, 4 isolates; value over three Gram-negative pathogens.
Description: as §1

The subject of test [5] is Methicillin-resistant Staphylococcus epidermidis (MRSE). Kind of test: MIC by agar dilution, MRSE clinical isolates. It counts as cell-based. Conditions: Table 1; MRSE, 3 isolates.
Description: as §1

Test [6] concerns Methicillin-resistant Staphylococcus aureus with the mec A gene and PBP2a (WHO-31). The experiment in a line: MIC by agar dilution, MRSA (WHO-31). It counts as cell-based. Conditions: Table 1; MRSA (WHO-31), 1 isolate.
Description: as §1

The subject of test [7] is K. penumonia. Kind of test: MIC by agar dilution, K. penumonia. It counts as cell-based, K. pneumonia. Conditions: Table 1; K. penumonia, 4 isolates; value over three Gram-negative pathogens.
Description: as §1

For test [8], the system named is Methicillin-susceptible Staphylococcus aureus (MSSA). Kind of test: MIC by agar dilution, MSSA clinical isolates. It counts as cell-based. Conditions: Table 1; MSSA, 10 isolates.
Description: as §1

Test [9] deals with Oxacillin-resistant Staphylococcus aureus (WHO-25). Kind of test: MIC by agar dilution, ORSA (WHO-25). Conditions: Table 1; ORSA (WHO-25), 1 isolate. Format: cell-based.
Description: as §1

Test [10] deals with P. aeruginosa. Kind of test: MIC by agar dilution, P. aeruginosa. Format: cell-based. Conditions: Table 1; P. aeruginosa, 4 isolates; value over three Gram-negative pathogens.
Description: as §1

The MIC is the lowest concentration found to suppress growth. Low readings indicate greater potency, high ones weaker potency. Take `O=C(c1ccccc1)c1[nH]c(Cl)c(Cl)c1-n1c(C(=O)c2ccccc2)cc(Cl)c1Cl` [Compound 1d]: the MIC was more than 128 µg/mL in test [1]; 2 µg/mL (≈ 4.18 µM) in [2]; 4 to 8 µg/mL in test [3]; more than 128 µg/mL in test [4]; 0.5 to 4 µg/mL in test [5]; 4 µg/mL (≈ 8.37 µM) in test [6]. In addition, the MIC was more than 128 µg/mL in test [7], 2 to 8 µg/mL in test [8], 4 µg/mL (≈ 8.37 µM) in test [9] and more than 128 µg/mL in test [10].
